Results on 37 compounds are retold here after PubChem BioAssay (NCI).

Structures are written as SMILES. Where “and” joins values, the source holds several entries; their conditions need not be identical. Equal entries are not always repeated.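 These data come from cells grown in 96-well plates and exposed to compound for 48 hours at five concentrations. GI50 = concentration required for 50% inhibition of growth. At the TGI there is no net growth.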 Where only a bound is given, the exact number is not on record here.

This test concerns MDA-MB-468 breast. Nature of the test: growth of human tumour cells (NCI), 48 h.

On to `Cc1ccc(N2CCN(C3=C(Cl)C(=O)c4ncccc4C3=O)CC2)cc1`, for which the GI50 was 1.49 µM and the TGI was 3.04 µM.
For `Cc1nc2sccn2c(=O)c1CCN1CCC(=C(c2ccc(F)cc2)c2ccc(F)cc2)CC1` the same measures were 5.05 µM and 19 µM.
As to `CCCCCCCC/C=C/CCCCCCCCC1=NCCN1CCO`, the GI50 is 10.3 µM and the TGI came out at 26.6 µM.
For `COc1cc(/C=C/c2cc(/C=C/c3ccc(O)c(OC)c3)n(-c3c(C)cccc3C)c(=O)n2)ccc1O` the same measures were 0.835 µM and 3.61 µM.
For `O=[N+]([O-])c1ccc(-c2nc(-c3ccccc3)c(-c3ccccc3)n2-c2ccccc2)cc1` the same measures were 3.77 µM and 12.7 µM.
In the same order, the values of `COc1ccc(C(=O)c2ccc(OC)c(OC)c2OC)cc1` are 0.696 µM and 9.94 µM.
As to `C=C1C[C@](OC)([C@H](O)C(=O)N[C@@H](OC)[C@@H]2C[C@@H](O)C(C)(C)[C@@H](C[C@@H](COC)OC)O2)O[C@H](C)[C@@H]1C`, the GI50 was 0.000941 µM and the TGI came to 0.00348 µM.
In the same order, the values of `CC(C)CCOc1ccc(-c2n[nH]c(C(F)(F)F)c2-c2cncc(C#N)c2)c(O)c1` are 1.01 µM and 4.83 µM.
In the same order, the values of `CCN(CC)c1cc(/C=C/c2ccc(OC)c(OC)c2)nc2cc(F)c(F)cc12` are 2.49 µM and 10.3 µM.
On to `NC(=NCCCOc1ccc(Cl)cc1)Nc1ccc(Cl)cc1`, for which the GI50 was 1.71 µM and the TGI was 3.78 µM.
On to `Cc1cc2cc3cc(C)c(N(C)C)cc3nc2cc1N(C)C`, for which the GI50 was 0.8 µM and the TGI came out at 9.01 µM.
In the case of `NC(CSC(c1ccccc1)(c1ccccc1)c1ccc(Cl)cc1)C(=O)O` (centres undefined), the GI50 was 0.0819 µM and the TGI amounted to 4.18 µM.
In the same order, the values of `CCOc1ccc([C@@H]2[C@@H](Oc3ccccc3)C(=O)N2c2cc(OC)c(OC)c(OC)c2)cc1` are 0.0459 µM and more than 100 µM.
For the compound `CCN(CC)CCCNc1cccc2c(SCc3ccccc3)ccnc12`, the GI50 is 1.88 µM and the TGI turned out to be 3.43 µM.
With `CCC(C)n1cc(C)c2c(C(=O)NCc3c(C)cc(C)[nH]c3=O)cc(Br)cc21` (centres undefined), the GI50 is 22.8 µM and the TGI is more than 100 µM.
For `CC(=O)N1CC(Nc2ccc(OC(F)(F)F)cc2)=CC1=O` the same measures were 0.662 µM and 4.74 µM.
For `C=C(C)[C@@H]1CC[C@]2(C)[C@H](C(=O)C=C3[C@@H]4C[C@](C)(C(=O)N5CCN(C)CC5)CC[C@]4(C)CC[C@]32C)[C@@]1(C)CCC#N` the same measures were 5.92 µM and 13.2 µM.
For `COc1cc(NCCCCN=C(N)NC(N)=NC(C)C)c2ncccc2c1`, the GI50 is 0.106 µM and the TGI amounted to 0.435 µM.
As for `CN(C)c1ccc(/C=C(/NC(=O)c2ccccc2)c2nc3ccc(Cl)cc3[nH]2)cc1`, the GI50 was 20.5 µM and the TGI was 70.5 µM.
In the same order, the values of `COc1ccc(Nn2c(SCC(=O)Nc3nc(-c4ccc(Cl)cc4)cs3)nc(C)c2C)cc1` are 0.574 µM and 7.73 µM.
As to `CC1/C=C/C=C/C=C/C=C/C=C/C=C/C=C/C(O[C@@H]2O[C@H](C)[C@H](O)[C@@H](O)[C@@H]2N)CC(O)C(C(=O)O)C(O)CC(=O)CC(O)CC(O)CC(O)CC(=O)CCCC(=O)CC(=O)OC1C(C)CC(C)C(O)CC(=O)c1ccc(N)cc1` (some centres undefined), the GI50 is 0.0492 µM and 0.223 µM; the TGI is 0.0989 µM and 0.723 µM.
In the case of `COc1cc(C)c(-c2ccc(=O)c(OC)cc2C)c(OC)c1OC`, the GI50 is > 100 µM and 14 µM; the TGI is more than 100 µM.
Regarding `CC(C)[C@@]12C[C@@H](OC(=O)[C@H]3CO3)[C@@](C)(O1)[C@@H]1CC[C@@H](C)[C@H]1[C@@H]2OC(=O)/C=C/c1ccccc1`, the GI50 was 13.9 µM and the TGI came to 30.9 µM.
For `CC(C)(C)c1nc2c(o1)C(=O)c1ccccc1C2=O` the same measures were 0.184 µM and 0.564 µM.
`COc1ccccc1-n1c(-c2cc(O)ccc2C)cn2c3c(=O)[nH]c(=O)n(C)c3nc12`: the GI50 is 15.6 µM and the TGI is more than 100 µM.
For `CS(=O)CCCCCN=C=S` (centres undefined) the same measures were 2.68 µM and 9.94 µM.
For the compound `COc1cccc(C2C(C#N)=C(N)Oc3cc(N)ccc32)c1` (centres undefined), the GI50 is 0.282 µM and the TGI was found to be 0.987 µM.
In the same order, the values of `CC(=O)Nc1ccc(Sc2ccc([N+](=O)[O-])o2)cc1` are 0.933 µM and 2.81 µM.
`CCCCCCCC/C=C/CCCCCCCC1=NCC[N+]1(CCO)CCO`: the GI50 was 1.78 µM and the TGI was found to be 4.56 µM.
On to `CC(=O)c1ccc(NC(=O)CSc2nnc(-c3cc(-c4ccc(C)cc4)nc4ccccc34)o2)cc1`, for which the GI50 is 3.54 µM and the TGI is more than 100 µM.
As for `CN1CCCNc2c(c(=O)c2=O)NCCCN(C)CCCNc2c(c(=O)c2=O)NCCCN(C)CCCNc2c(c(=O)c2=O)NCCCN(C)CCCNc2c(c(=O)c2=O)NCCCN(C)CCCNc2c(c(=O)c2=O)NCCCN(C)CCCNc2c(c(=O)c2=O)NCCCN(C)CCCNc2c(c(=O)c2=O)NCCC1`, the GI50 was 2 µM and the TGI came out at 12 µM.
As for `ClC1=C(Cl)C(Cl)=C(Cl)C1=C/C=C/c1ccccc1`, the GI50 was 0.186 µM and the TGI was determined as 0.433 µM.
In the same order, the values of `NCCCNc1nc2ccccc2c2c(=O)c3cc(C(F)(F)F)ccc3sc12` are 1.53 µM and 2.99 µM.
For `CCCCCCCCCCCCCCCCCC1=NCCN1CS(=O)(=O)O` the same measures were 16.1 µM and 33.8 µM.
For `N#Cc1c(-c2ccc(Cl)cc2)n(O)c2ccccc12` the same measures were 1.63 µM and 4.71 µM.
For the compound `COC(=O)c1ccc2c(c1)nc(-c1cc3ccccc3[nH]c1=O)n2-c1cc(C(C)(C)C)[nH]n1`, the GI50 is 13.7 µM and the TGI is more than 100 µM.
For `Cc1cccc(Oc2nccc(-c3c(-c4ccc(F)cc4)ncn3C3CCNCC3)n2)c1C` the same measures were 2.95 µM and 6.46 µM.
